Laboratory results as given in PubChem BioAssay (NCI).
Values joined by “and” are separate entries in the source; they are usually repeats but may differ in a detail not shown here. Equal entries are not always repeated.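 A five-concentration, 48-hour dose response in 96-well plates underlies each endpoint, interpolated linearly between surrounding concentrations. Abbreviation: GI50, concentration required for 50% inhibition of growth. TGI is the concentration that stops growth completely.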

What was measured:
Assay in all cases: NCI-60 cell line screen, 48 h
DMS 114 small cell lung = test system: DMS 114 small cell lung
DMS 273 small cell lung = test system: DMS 273 small cell lung
DLD-1 colon = test system: DLD-1 colon
LXFL 529 NSCLC = test system: LXFL 529 NSCLC
MDA-N = test system: MDA-N
KM20L2 colon = test system: KM20L2 colon
HOP-18 NSCLC = test system: HOP-18 NSCLC
RXF-631 renal = test system: RXF-631 renal
XF 498 CNS = test system: XF 498 CNS
SN12K1 renal = test system: SN12K1 renal

Row | SMILES | TGI (DMS 114 small cell lung) | TGI (DMS 273 small cell lung) [µM] | TGI (DLD-1 colon) | TGI (LXFL 529 NSCLC) [µM] | TGI (MDA-N) | TGI (KM20L2 colon) | TGI (HOP-18 NSCLC) [µM] | TGI (RXF-631 renal) [µM] | TGI (XF 498 CNS) [µM] | other results
1 | NC(N)=NS(=O)(=O)c1ccc(NCc2c3ccccc3nc3ccccc23)cc1 | 16 µM | > 61.6 | > 77 µM | 44.3 | > 100 µM | > 100 µM | > 86.8 | > 70.1 |  | 
2 | CC(C)(C)NN=C1C(C)(C)C(=NNC(C)(C)C)C1(C)C | > 100 µM | > 100 | > 100 µM | > 100 |  | > 100 µM |  |  | > 100 | 
3 | NS(=O)(=O)c1cc2c(cc1Cl)NC(Cc1ccccc1)NS2(=O)=O (stereo unspecified) |  |  |  |  | > 100 µM |  |  |  |  | 
4 | CSC(C1c2ccccc2N(C)C2=NC(=O)N(C)C(=O)C21Cl)S(=O)(=O)c1ccc(C)cc1 (stereo unspecified) | > 100 µM | 75 | > 100 µM | 57.7 |  | > 100 µM | > 100 | > 100 | > 100 | 
5 | COC1=CC(O)(CC(N)=O)c2ccccc2C1=O (stereo unspecified) | > 100 µM | > 100 | > 100 µM | > 100 |  | > 100 µM | > 100 | > 100 | > 100 | 
6 | COc1ccc(C2=NNC(=O)OC2c2ccccc2)cc1 (stereo unspecified) | > 100 µM |  |  | > 100 |  | > 100 µM | > 100 | > 100 | > 100 | 
7 | CC/C=C1\N=C(c2ccc(Cl)cc2)OC1=O | > 100 µM | > 100 | > 100 µM | > 100 |  | > 100 µM |  |  | > 100 | 
8 | C1CCN(CCC2CCCCN2)CC1 (stereo unspecified) |  |  |  |  | > 100 µM |  |  |  |  | 
9 | COc1cc2c(cc1OC)-c1cc3cc(OC)c(OC)cc3n1CC2 | > 100 µM |  | > 100 µM | > 100 |  | > 100 µM |  |  | 59.7 | 
10 | C=C/C=C(\NC(=O)C(Cl)(Cl)Cl)[Si](C)(C)C | > 100 µM | > 100 | > 100 µM | > 100 |  | > 100 µM | > 100 |  | > 100 | 
11 | Cc1cc(N(CCC#N)S(C)(=O)=O)ccc1C=O | > 100 µM | > 100 | > 100 µM | > 100 |  | > 100 µM | > 100 |  |  | 
12 | N#CC(C(=O)/C(=N\Nc1nc(=S)[nH]n1N)C(C#N)c1ccc(Cl)cc1)c1ccc(Cl)cc1 (stereo unspecified) | > 100 µM | > 100 | > 100 µM | > 100 |  | > 100 µM | > 100 |  | > 100 | 
13 | CCCN(CCCC(NC(C)=O)C(=O)NCc1ccccc1)C(=O)NC (stereo unspecified) | > 100 µM | > 100 | > 100 µM | > 100 |  | > 100 µM |  | > 100 |  | 
14 | COc1ccc(/C(=N/NC(=O)NN)C(c2ccc(OC)cc2)C2(O)CNc3c(Cl)cc(Cl)cc32)cc1 (stereo unspecified) | > 100 µM |  | > 100 µM | > 100 |  | > 100 µM | > 100 | > 100 |  | 
15 | CC(C)(C)c1nc2c(o1)C(=O)c1ccccc1C2=O | 5.89 µM | 12 | 14.5 µM | 18.1 | 0.367 µM | 48.2 µM | 18.9 | 14.9 | 7.15 | 
16 | O=C(CC1(O)C(=O)Nc2ccccc21)c1ccccc1Cl (stereo unspecified) | > 100 µM | > 100 | > 100 µM | > 100 |  | > 100 µM |  |  | > 100 | 
17 | COC1(OC)CC2C=C(S(=O)(=O)c3ccccc3)C1N(Cc1ccccc1)C2=O (stereo unspecified) | 48.3 µM |  | 96.2 µM | 44.9 |  | 97.6 µM | > 100 | 88.2 | 48.1 | 
18 | Cn1c2c(c3ccccc31)C1CCCCC1C1C(=O)NC(=O)C21 (stereo unspecified) | > 100 µM |  | > 100 µM | > 100 |  |  | > 100 | > 100 | > 100 | 
19 | CC(=O)OC1CC(n2cc(F)c(=O)[nH]c2=O)OC1CO (stereo unspecified) | > 100 µM | > 47 | > 100 µM | 16.4 | > 100 µM | > 100 µM | > 100 |  | 83.8 | 
20 | CSc1cnn(CCC#N)c(=O)n1 |  |  |  |  | > 100 µM |  |  |  |  | 
21 | COc1ccc(/C(Cl)=C(\C=O)c2ccc([N+](=O)[O-])cc2)cc1OC | 22.3 µM | 32 |  | 13.7 | 14.5 µM | 25.5 µM | 23.7 | 26.9 | 9.59 | 
22 | Cc1ccc(NC(=O)c2cccc([N+](=O)[O-])c2O)c([N+](=O)[O-])c1 | 25.7 µM | 26.2 | 39.9 µM | 27.9 |  | 70.4 µM | 91.1 | 26.9 | 36.2 | 

Row | SMILES | TGI (DMS 114 small cell lung) | TGI (DMS 273 small cell lung) [µM] | TGI (DLD-1 colon) | TGI (LXFL 529 NSCLC) [µM] | TGI (MDA-N) | TGI (KM20L2 colon) | TGI (HOP-18 NSCLC) [µM] | TGI (RXF-631 renal) [µM] | TGI (XF 498 CNS) [µM] | other results
23 | O=C(CO)CC(=O)C(=O)Nc1nc([N+](=O)[O-])cs1 | > 100 µM | > 100 | > 100 µM | > 100 |  | > 100 µM | > 100 | > 100 |  | 
24 | O=P(O)(O)c1ccccc1 (tested in a mixture with another compound) |  |  |  |  | > 100 µM |  |  |  |  | 
25 | CCCCCC(O)C1C(=O)OC(C)C(O)/C=C/C=C/C=C/C=C\C=C(\C)C(O)CC(O)CC(O)CC(O)CC(O)CC(O)CC1O (stereo unspecified) |  |  |  |  | > 100 µM |  |  |  |  | GI50 (MDA-N): > 100 µM
26 | C/C(=N\NC(=O)c1ccncc1)c1ccc2ccccc2c1O |  |  |  |  | > 100 µM |  |  |  |  | 
27 | CCSCC(N)C(=O)O (stereo unspecified) |  |  |  |  | > 100 µM |  |  |  |  | 
28 | CC1C[C@H](OC(N)=O)C(C)CC1=O (stereo partly specified) | > 100 µM | > 100 | > 100 µM | > 100 |  | > 100 µM | > 100 |  | > 100 | 
29 | CC(C)c1ccccc1NC(=O)C(=O)Cc1nc2ccccc2s1 | > 100 µM | > 100 |  | > 100 |  | > 100 µM | > 100 | > 100 |  | 
30 | Cc1ccc(-c2nc(SCC(=O)O)n[nH]2)cc1 | > 100 µM | > 100 | > 100 µM | > 100 |  | > 100 µM | > 100 |  | > 100 | 
31 | Cc1ccc(NC(=O)NC(=O)c2ccc([N+](=O)[O-])cc2[N+](=O)[O-])cc1Oc1ncc(Cl)cn1 | 10.1 µM | 1.08 | 12.5 µM | 11.1 |  | 0.515 µM | 25.3 |  | 16.9 | 
32 | CCOC(=O)C(=O)Nc1c(F)cc(F)cc1Br | > 100 µM |  | > 100 µM | > 100 |  | > 100 µM |  |  | > 100 | 
33 | COc1ccc2oc3c4c2c1CCC4CCC3=O (stereo unspecified) | > 100 µM | > 100 |  | > 100 |  |  |  | > 100 | > 100 | 
34 | COc1ccc(C(O)/C(=N\NC(N)=S)c2nc3ccc([N+](=O)[O-])cc3[nH]c2=O)cc1OC (stereo unspecified) | > 100 µM | > 100 | > 100 µM | > 100 |  | > 100 µM | > 100 | > 100 | > 100 | 
35 | CC[C@H]1CN2CCc3cc(OC)c(OC)cc3[C@@H]2C[C@@H]1C[C@H]1NCCc2cc(O)c(OC)cc21 | 0.0247 µM and 0.0373 µM |  | 0.0454 µM and 0.356 µM |  | 0.0354 µM and 0.141 µM | 0.0302 µM and 0.136 µM | 0.793 |  | 0.0388 | GI50 (SN12K1 renal): 0.025 µM; TGI (SN12K1 renal): 0.191 µM; GI50 (LXFL 529 NSCLC): 0.0118 µM; GI50 (MDA-N): 0.0127 µM; GI50 (XF 498 CNS): 0.025 µM; GI50 (HOP-18 NSCLC): 0.0284 µM and 0.13 µM
36 | O=C1C(Br)=CC2(C=C1Br)CCN=c1c2c(O)c2nc3ccccc3c3ccnc1c23 |  |  |  |  | 2.22 µM |  |  |  |  | GI50 (MDA-N): 0.951 µM
37 | CCOC(=O)C(=O)Nc1ccc(C)cc1C | > 100 µM |  | > 100 µM | > 100 |  |  | > 100 |  |  | 
38 | CCNCC(=O)O[C@]1(CC)C(=O)OCc2c1cc1n(c2=O)Cc2cc3ccccc3nc2-1 | 2.53 µM | 0.328 | > 100 µM | 42.6 | 6.95 µM | > 100 µM | 20.5 |  | 1.56 | 
39 | CCC[CH2][Sn]([CH2]CCC)([O]C(=O)c1cc(F)cc(F)c1)[O]C(=O)c1cc(F)cc(F)c1 | 1.22 µM | 2.5 | 2 µM | 0.607 |  | 3.44 µM | 3.33 |  | 3.28 | GI50 (DMS 114 small cell lung): 0.307 µM; GI50 (DMS 273 small cell lung): 1.25 µM; GI50 (DLD-1 colon): 0.727 µM; GI50 (LXFL 529 NSCLC): 0.171 µM; GI50 (KM20L2 colon): 1.61 µM; GI50 (XF 498 CNS): 1.87 µM; GI50 (HOP-18 NSCLC): 1.91 µM
40 | O=S(O)CCCCCSSCCCCSSCCCCCS(=O)O | > 100 µM | > 100 | > 100 µM | > 100 |  | > 100 µM | > 100 | > 100 | > 100 | 
41 | COc1ccc(/C=C2\CCCCC2=O)cc1 | > 100 µM | > 100 | > 100 µM | > 100 |  | > 100 µM | > 100 |  | > 100 | 
42 | CCn1cc(/C=C/C(C)c2cn(CC)c(=O)[nH]c2=O)c(=O)[nH]c1=O (stereo unspecified) | > 100 µM | > 100 | > 100 µM | > 100 |  | > 100 µM | > 100 | > 100 |  | 
43 | NC(=O)C1=NNc2ccccc2C(=O)N1c1ccccc1 |  |  |  |  | > 100 µM |  |  |  |  | 
44 | Brc1ccc(-c2nnc(-c3nn(-c4ccccc4)c4nc5ccccc5nc34)o2)cc1 | > 100 µM | > 100 | > 100 µM | > 100 |  | > 100 µM | > 100 | > 100 |  | 
